What was measured:
Experiment in all cases: Test E preemergence
Format in all cases: in vivo
Conditions in all cases: scale 0 to 100
Kochia (Kochia scoparia) = system: Kochia (Kochia scoparia)
Description: (§1) Seeds of plant species selected from corn (Zea mays), soybean (Glycine max), velvetleaf (Abutilon theophrasti), lambsquarters (Chenopodium album), poinsettia, wild (wild poinsettia, Euphorbia heterophylla), pigweed, palmer (palmer pigweed, Amaranthus palmeri), waterhemp (common waterhemp, Amaranthus rudis), surinam grass (Brachiaria decumbens), crabgrass, large (large crabgrass, Digitaria sangumnalis), crabgrass, Brazil (Brazilian crabgrass, Digitaria horizontalis), Panicum, fall (fall Panicum, Panicum dichotomiflorum), foxtail, giant (giant foxtail, Setaria faberii), foxtail, green (green foxtail, Setaria viridis), goosegrass (Eleusine indica), johnsongrass (Sorghum halepense), ragweed (common ragweed, Ambrosia elatior), barnyardgrass (Echinochloa crus-galli), sandbur (southern sandbur, Cenchrus echinatus), arrowleaf Sida (Sida rhombifolia), ryegrass, Italian (Italian ryegrass, Lolium multiflorum), dayflower, VA (Virginia dayflower, Commelina virginica), field bindweed (Convolvulus arvensis), morningglory (Ipomoea coccinea), nightshade (eastern black nightshade, Solanum ptycanthum), Kochia (Kochia scoparia), nutsedge, yellow (yellow nutsedge, Cyperus esculentus), horseweed (Conyza canadensis), and beggarticks (hairy beggarticks, Bidens pilosa), were planted into a silt loam soil and treated preemergence with test chemicals formulated in a non-phytotoxic solvent mixture which included a surfactant.
(§2) At the same time, plants selected from these crop and weed species were planted in pots containing Sunshine Redi-Earth planting medium comprising spaghnum peat moss, vermiculite, starter nutrients and dolomitic limestone and treated with postemergence applications of a test chemical formulated in the same manner. Plants ranged in height from 2 to 18 cm (1- to 4-leaf stage) for postemergence treatments. Treated plants and controls were maintained in a greenhouse for 14 to 21 d, after which time all species were compared to controls and visually evaluated. Plant response ratings, summarized in Table E, are based on a scale of 0 to 100 where 0 is no effect and 100 is complete control. A dash (-) response means no test result.

[1] = system: horseweed (Conyza canadensis)
Description: as §1, §2

[2] = system: barnyardgrass (Echinochloa crus-galli)
Description: as §1, §2

[3] = system: sandbur (southern sandbur, Cenchrus echinatus)
Description: as §1, §2

[4] = system: beggarticks (hairy beggarticks, Bidens pilosa)
Description: as §1, §2

[5] = system: foxtail, green (green foxtail, Setaria viridis)
Description: as §1, §2

[6] = system: nightshade (eastern black nightshade, Solanum ptycanthum)
Description: as §1, §2

[7] = system: goosegrass (Eleusine indica)
Description: as §1, §2

[8] = system: nutsedge, yellow (yellow nutsedge, Cyperus esculentus)
Description: as §1, §2

soybean (Glycine max) = system: soybean (Glycine max)
Description: as §1, §2

[9] = system: crabgrass, large (large crabgrass, Digitaria sangumnalis)
Description: as §1, §2

[10] = system: velvetleaf (Abutilon theophrasti)
Description: as §1, §2

[11] = system: waterhemp (common waterhemp, Amaranthus rudis)
Description: as §1, §2

[12] = system: surinam grass (Brachiaria decumbens)
Description: as §1, §2

[13] = system: ryegrass, Italian (Italian ryegrass, Lolium multiflorum)
Description: as §1, §2

[14] = system: field bindweed (Convolvulus arvensis)
Description: as §1, §2

[15] = system: foxtail, giant (giant foxtail, Setaria faberii)
Description: as §1, §2

[16] = system: Panicum, fall (fall Panicum, Panicum dichotomiflorum)
Description: as §1, §2

[17] = system: arrowleaf Sida (Sida rhombifolia)
Description: as §1, §2

[18] = system: crabgrass, Brazil (Brazilian crabgrass, Digitaria horizontalis)
Description: as §1, §2

corn (Zea mays) = system: corn (Zea mays)
Description: as §1, §2

**Q.** `CN1CC(c2ccc(C(F)(F)F)cc2)C(C(=O)Nc2ccccc2S(C)(=O)=O)C1=O` (stereo not shown) [Compound 624] was tested. Which “Plant response rating: Kochia” value (Kochia (Kochia scoparia); 31 g ai/ha) did it give?
**A.** 0

**Q.** What about the “Plant response rating: Kochia” value (Kochia (Kochia scoparia); 125 g ai/ha) of the same molecule?
**A.** 0

**Q.** What about the “Plant response rating: Kochia” value (Kochia (Kochia scoparia); 250 g ai/ha) of the same molecule?
**A.** 30

**Q.** And the “Plant response rating: Horseweed” value ([1]; 31 g ai/ha)?
**A.** 30

**Q.** What about the “Plant response rating: Horseweed” value ([1]; 62 g ai/ha) of the same molecule?
**A.** 90

**Q.** What about the “Plant response rating: Horseweed” value ([1]; 250 g ai/ha) of the same molecule?
**A.** 85

**Q.** What about the “Plant response rating: Barnyardgrass” value ([2]; 31 g ai/ha) of the same molecule?
**A.** 0

**Q.** What about the “Plant response rating: Barnyardgrass” value ([2]; 62 g ai/ha) of the same molecule?
**A.** 30

**Q.** And the “Plant response rating: Barnyardgrass” value ([2]; 125 g ai/ha)?
**A.** 50

**Q.** And the “Plant response rating: Barnyardgrass” value ([2]; 250 g ai/ha)?
**A.** 65

**Q.** What about the “Plant response rating: Sandbur” value ([3]; 31 g ai/ha) of the same molecule?
**A.** 10

**Q.** What about the “Plant response rating: Sandbur” value ([3]; 62 g ai/ha) of the same molecule?
**A.** 30

**Q.** And the “Plant response rating: Sandbur” value ([3]; 125 g ai/ha)?
**A.** 50

**Q.** What about the “Plant response rating: Sandbur” value ([3]; 250 g ai/ha) of the same molecule?
**A.** 50

**Q.** What about the “Plant response rating: Beggarticks” value ([4]; 31 g ai/ha) of the same molecule?
**A.** 20

**Q.** And the “Plant response rating: Beggarticks” value ([4]; 62 g ai/ha)?
**A.** 25

**Q.** What about the “Plant response rating: Beggarticks” value ([4]; 125 g ai/ha) of the same molecule?
**A.** 40

**Q.** What about the “Plant response rating: Beggarticks” value ([4]; 250 g ai/ha) of the same molecule?
**A.** 50

**Q.** What about the “Plant response rating: Foxtail, Green” value ([5]; 31 g ai/ha) of the same molecule?
**A.** 20

**Q.** And the “Plant response rating: Foxtail, Green” value ([5]; 62 g ai/ha)?
**A.** 20

**Q.** And the “Plant response rating: Foxtail, Green” value ([5]; 125 g ai/ha)?
**A.** 65

**Q.** What about the “Plant response rating: Foxtail, Green” value ([5]; 250 g ai/ha) of the same molecule?
**A.** 75

**Q.** And the “Plant response rating: Nightshade” value ([6]; 31 g ai/ha)?
**A.** 70

**Q.** And the “Plant response rating: Nightshade” value ([6]; 62 g ai/ha)?
**A.** 75

**Q.** What about the “Plant response rating: Nightshade” value ([6]; 125 g ai/ha) of the same molecule?
**A.** 80

**Q.** What about the “Plant response rating: Nightshade” value ([6]; 250 g ai/ha) of the same molecule?
**A.** 80

**Q.** And the “Plant response rating: Goosegrass” value ([7]; 31 g ai/ha)?
**A.** 50

**Q.** And the “Plant response rating: Goosegrass” value ([7]; 62 g ai/ha)?
**A.** 75

**Q.** What about the “Plant response rating: Goosegrass” value ([7]; 125 g ai/ha) of the same molecule?
**A.** 80

**Q.** And the “Plant response rating: Goosegrass” value ([7]; 250 g ai/ha)?
**A.** 100

**Q.** And the “Plant response rating: Nutsedge, Yellow” value ([8]; 31 g ai/ha)?
**A.** 0

**Q.** What about the “Plant response rating: Nutsedge, Yellow” value ([8]; 62 g ai/ha) of the same molecule?
**A.** 0

**Q.** What about the “Plant response rating: Nutsedge, Yellow” value ([8]; 125 g ai/ha) of the same molecule?
**A.** 0

**Q.** What about the “Plant response rating: Nutsedge, Yellow” value ([8]; 250 g ai/ha) of the same molecule?
**A.** 10

**Q.** And the “Plant response rating: Soybean” value (soybean (Glycine max); 31 g ai/ha)?
**A.** 0

**Q.** What about the “Plant response rating: Soybean” value (soybean (Glycine max); 62 g ai/ha) of the same molecule?
**A.** 10

**Q.** And the “Plant response rating: Soybean” value (soybean (Glycine max); 125 g ai/ha)?
**A.** 20

**Q.** And the “Plant response rating: Soybean” value (soybean (Glycine max); 250 g ai/ha)?
**A.** 10

**Q.** What about the “Plant response rating: Crabgrass, Large” value ([9]; 31 g ai/ha) of the same molecule?
**A.** 30

**Q.** And the “Plant response rating: Crabgrass, Large” value ([9]; 62 g ai/ha)?
**A.** 85

**Q.** What about the “Plant response rating: Crabgrass, Large” value ([9]; 125 g ai/ha) of the same molecule?
**A.** 80

**Q.** What about the “Plant response rating: Crabgrass, Large” value ([9]; 250 g ai/ha) of the same molecule?
**A.** 90

**Q.** And the “Plant response rating: Velvetleaf” value ([10]; 31 g ai/ha)?
**A.** 0

**Q.** What about the “Plant response rating: Velvetleaf” value ([10]; 62 g ai/ha) of the same molecule?
**A.** 0

**Q.** And the “Plant response rating: Velvetleaf” value ([10]; 125 g ai/ha)?
**A.** 10

**Q.** And the “Plant response rating: Velvetleaf” value ([10]; 250 g ai/ha)?
**A.** 20

**Q.** And the “Plant response rating: Waterhemp” value ([11]; 31 g ai/ha)?
**A.** 50

**Q.** What about the “Plant response rating: Waterhemp” value ([11]; 62 g ai/ha) of the same molecule?
**A.** 60

**Q.** And the “Plant response rating: Waterhemp” value ([11]; 125 g ai/ha)?
**A.** 75

**Q.** What about the “Plant response rating: Waterhemp” value ([11]; 250 g ai/ha) of the same molecule?
**A.** 70

**Q.** And the “Plant response rating: Surinam Grass” value ([12]; 31 g ai/ha)?
**A.** 20

**Q.** What about the “Plant response rating: Surinam Grass” value ([12]; 62 g ai/ha) of the same molecule?
**A.** 30

**Q.** And the “Plant response rating: Surinam Grass” value ([12]; 125 g ai/ha)?
**A.** 40

**Q.** What about the “Plant response rating: Surinam Grass” value ([12]; 250 g ai/ha) of the same molecule?
**A.** 70

**Q.** What about the “Plant response rating: Ryegrass, Italian” value ([13]; 31 g ai/ha) of the same molecule?
**A.** 0

**Q.** And the “Plant response rating: Ryegrass, Italian” value ([13]; 62 g ai/ha)?
**A.** 0

**Q.** And the “Plant response rating: Ryegrass, Italian” value ([13]; 125 g ai/ha)?
**A.** 10

**Q.** And the “Plant response rating: Ryegrass, Italian” value ([13]; 250 g ai/ha)?
**A.** 15

**Q.** And the “Plant response rating: Field Bindweed” value ([14]; 31 g ai/ha)?
**A.** 0

**Q.** And the “Plant response rating: Field Bindweed” value ([14]; 62 g ai/ha)?
**A.** 10

**Q.** What about the “Plant response rating: Field Bindweed” value ([14]; 125 g ai/ha) of the same molecule?
**A.** 5

**Q.** What about the “Plant response rating: Field Bindweed” value ([14]; 250 g ai/ha) of the same molecule?
**A.** 10

**Q.** And the “Plant response rating: Foxtail, Giant” value ([15]; 31 g ai/ha)?
**A.** 20

**Q.** And the “Plant response rating: Foxtail, Giant” value ([15]; 62 g ai/ha)?
**A.** 50

**Q.** What about the “Plant response rating: Foxtail, Giant” value ([15]; 125 g ai/ha) of the same molecule?
**A.** 70

**Q.** What about the “Plant response rating: Foxtail, Giant” value ([15]; 250 g ai/ha) of the same molecule?
**A.** 85

**Q.** What about the “Plant response rating: Panicum, Fall” value ([16]; 31 g ai/ha) of the same molecule?
**A.** 0

**Q.** What about the “Plant response rating: Panicum, Fall” value ([16]; 62 g ai/ha) of the same molecule?
**A.** 0

**Q.** What about the “Plant response rating: Panicum, Fall” value ([16]; 125 g ai/ha) of the same molecule?
**A.** 30

**Q.** And the “Plant response rating: Panicum, Fall” value ([16]; 250 g ai/ha)?
**A.** 60

**Q.** What about the “Plant response rating: Arrowleaf Sida” value ([17]; 31 g ai/ha) of the same molecule?
**A.** 50

**Q.** And the “Plant response rating: Arrowleaf Sida” value ([17]; 62 g ai/ha)?
**A.** 50

**Q.** What about the “Plant response rating: Arrowleaf Sida” value ([17]; 125 g ai/ha) of the same molecule?
**A.** 40

**Q.** What about the “Plant response rating: Arrowleaf Sida” value ([17]; 250 g ai/ha) of the same molecule?
**A.** 60

**Q.** What about the “Plant response rating: Crabgrass, Brazil” value ([18]; 31 g ai/ha) of the same molecule?
**A.** 80

**Q.** What about the “Plant response rating: Crabgrass, Brazil” value ([18]; 62 g ai/ha) of the same molecule?
**A.** 80

**Q.** What about the “Plant response rating: Crabgrass, Brazil” value ([18]; 125 g ai/ha) of the same molecule?
**A.** 95

**Q.** And the “Plant response rating: Crabgrass, Brazil” value ([18]; 250 g ai/ha)?
**A.** 100

**Q.** And the “Plant response rating: Corn” value (corn (Zea mays); 31 g ai/ha)?
**A.** 0

**Q.** And the “Plant response rating: Corn” value (corn (Zea mays); 62 g ai/ha)?
**A.** 0

**Q.** And the “Plant response rating: Corn” value (corn (Zea mays); 125 g ai/ha)?
**A.** 10

**Q.** And the “Plant response rating: Corn” value (corn (Zea mays); 250 g ai/ha)?
**A.** 20
